Experiment: Pharmacokinetic study after single dose in C57BL/6N mice
Assay type: in vivo, mouse
Procedure: Pharmacokinetic study of MI-883 in C57BL/6N mice (9–10 weeks old, body weight 20.8 to 24.5 g and average body weight across all groups 22.7 g, SD = 1.1 g) were performed following peroral (p.o.) and intraperitoneal (i.p.) administrations. […] There was also a control group of 4 animals per route. The levels of the parent compound MI-883 were determined by LC-MS/MS in the blood plasma, brain, kidney, liver, muscle (Leg triceps), bile, small intestine, colon, and adipose tissues over time after a single dose of 10 mg/kg. Mice were injected i.p. with 2,2,2-tribromoethanol at a dose of 150 mg/kg prior to drawing the blood. Blood collection was performed from the orbital sinus in BD microtainers tubes containing K2EDTA. Animals were sacrificed by cervical dislocation after the blood samples collection. After this, samples of brain, kidney, liver, muscle (Leg triceps), small intestine, colon, and adipose tissue were collected. Bile samples were taken from the gallbladder of mice. Urine and feces samples were collected using metabolic cages over the course of 1440 min (24 h) after compound administration. All samples were immediately processed, flash-frozen, and stored at –70 °C until subsequent analysis. Detection of the presence of potential metabolites (2-chloro-5-((4-(2-(4-chlorophenyl)-7-fluoroimidazo[1,2-a]pyridin-3-yl)-1H-1,2,3-triazol-1-yl)methyl)-N-methylbenzamide or 2-(4-chlorophenyl)-7-fluoro-3-(1H-1,2,3-triazol-4-yl)imidazo[1,2-a]pyridine) in plasma and tissues was performed. MI-883 was applied in 5%DMSO – 5%PEG300 – 90%corn oil formulation with a final concentration of the compound, 2 mg/ml. Animal treatment and sample preparation were conducted by the Animal Laboratory personnel at Enamine/Bienta.
Plasma samples (50 μl) were mixed with 200 μl of IS400 solution. After mixing by pipetting and centrifuging for 4 min at 6000 rpm, 2 μl of each supernatant was injected into the LC-MS/MS system. Solution of compound IS-19851 (400 ng/ml in acetonitrile-methanol mixture 1:1, v/v) was used as internal standard (IS400) for quantification of MI-883 in blood plasma, liver, kidney, muscle (Leg triceps), small intestine, and colon samples. Liver, kidney, muscle (Leg triceps), colon, and small intestine samples (weight 100 mg ±1 mg) were disintegrated in 500 μl of IS400 using zirconium oxide beads (120 mg ± 5 mg) in The Bullet Blender® homogenizer for 1–3 min at speed 8–12. After this, the samples were centrifuged for 3 min at 14,000 rpm, and 1 μl of each supernatant was injected into the LC-MS/MS system.
Brain and adipose tissue samples (weight 100 mg ± 1 mg) were dispersed in 500 μl of IS400(80) using zirconium oxide beads (120 mg ± 5 mg) in The Bullet Blender® homogenizer for 30 s at speed 8. After this, the samples were centrifuged for 4 min at 14,000 rpm, and 1 μl of each supernatant was injected into the LC-MS/MS system. Solution of compound IS-19851 (400 ng/ml in water-acetonitrile-methanol mixture, 2:4:4, v/v/v) was used as internal standard (IS400(80)) for quantification of MI-883 in the brain, adipose tissue, urine, and bile samples. Urine (cumulative) and bile samples were mixed with IS400(80) solution (1:20, v/v). After mixing by pipetting and centrifuging for 4 min at 6000 rpm, 0.5 μl of each supernatant was injected into the LC-MS/MS system. Cumulative feces samples (114 mg–249 mg) were transferred to BMT-20-S tubes with 4 stainless steel balls, mixed with 20 volumes of IS400(80) solution, and dispersed using ULTRA-TURRAX Tube Drive for 1 min at 3000 rpm within the 30 min thrice. After dispersing and centrifuging for 2 min at 14,000 rpm, 0.5 μl of each supernatant was injected into the LC-MS/MS system.
The concentration of MI-883 in plasma and tissues was determined using a high-performance liquid chromatography/tandem mass spectrometry (HPLC-MS/MS) method. […]

[1] = male, C57BL/6N, mouse, po, Liver, 10 mg/kg
[2] = male, C57BL/6N, mouse, po, Plasma, 10 mg/kg

NC(=O)c1cc(Cn2cc(-c3c(-c4ccc(Cl)cc4)nc4cc(F)ccn34)nn2)ccc1Cl [MI-883, 2-chloro-5-((4-(2-(4-chlorophenyl)-7-fluoroimidazo[1,2-a]pyridin-3-yl)-1H-1,2,3-triazol-1-yl)methyl)benzamide]
Tmax [1]: 30 min
half-life [1]: 211 min
Cmax [2]: 9290 ng/mL
Tmax [2]: 30 min
half-life [2]: 170 min
Tmax (male, mouse, ip, Plasma, 10 mg/kg, C57BL/6N mice): 30 min
PK of MI-883: MI-883 p.o. adipose tis. (p.o., time 10): 211
PK of MI-883: MI-883 p.o. adipose tis. (p.o., time 120): 5811
PK of MI-883: MI-883 p.o. adipose tis. (p.o., time 240): 980
PK of MI-883: MI-883 p.o. adipose tis. (p.o., time 480): 1023
PK of MI-883: MI-883 p.o. adipose tis. (p.o., time 720): 1016
PK of MI-883: MI-883 p.o. adipose tis. (p.o., time 1440): 8
PK of MI-883: MI-883 p.o. bile (p.o., time 10): 560
PK of MI-883: MI-883 p.o. bile (p.o., time 120): 5663
PK of MI-883: MI-883 p.o. bile (p.o., time 240): 9638
PK of MI-883: MI-883 p.o. bile (p.o., time 480): 9739
PK of MI-883: MI-883 p.o. bile (p.o., time 720): 23456
PK of MI-883: MI-883 p.o. bile (p.o., time 1440): 192
PK of MI-883: MI-883 p.o. brain (p.o., time 10): 8
PK of MI-883: MI-883 p.o. brain (p.o., time 120): 300
PK of MI-883: MI-883 p.o. brain (p.o., time 240): 45
PK of MI-883: MI-883 p.o. brain (p.o., time 720): 55
PK of MI-883: MI-883 p.o. colon (p.o., time 10): 2929
PK of MI-883: MI-883 p.o. colon (p.o., time 120): 4345
PK of MI-883: MI-883 p.o. colon (p.o., time 240): 1191
PK of MI-883: MI-883 p.o. colon (p.o., time 480): 1428
PK of MI-883: MI-883 p.o. colon (p.o., time 720): 1386
PK of MI-883: MI-883 p.o. colon (p.o., time 1440): 15
PK of MI-883: MI-883 p.o. feces (p.o., feces, time 1440): 174 ng
PK of MI-883: MI-883 p.o. kidney (p.o., time 10): 573
PK of MI-883: MI-883 p.o. kidney (p.o., time 120): 9000
PK of MI-883: MI-883 p.o. kidney (p.o., time 240): 2409
PK of MI-883: MI-883 p.o. kidney (p.o., time 480): 2347
PK of MI-883: MI-883 p.o. kidney (p.o., time 720): 2408
PK of MI-883: MI-883 p.o. kidney (p.o., time 1440): 40
PK of MI-883: MI-883 p.o. liver (p.o., time 10): 1972
PK of MI-883: MI-883 p.o. liver (p.o., time 120): 14919
PK of MI-883: MI-883 p.o. liver (p.o., time 240): 5297
PK of MI-883: MI-883 p.o. liver (p.o., time 480): 5137
PK of MI-883: MI-883 p.o. liver (p.o., time 720): 5549
PK of MI-883: MI-883 p.o. liver (p.o., time 1440): 102
PK of MI-883: MI-883 p.o. muscule (p.o., time 10): 98
PK of MI-883: MI-883 p.o. muscule (p.o., time 120): 2725
PK of MI-883: MI-883 p.o. muscule (p.o., time 240): 421
PK of MI-883: MI-883 p.o. muscule (p.o., time 480): 488
PK of MI-883: MI-883 p.o. muscule (p.o., time 720): 543
PK of MI-883: MI-883 p.o. small int. (p.o., time 10): 5277
PK of MI-883: MI-883 p.o. small int. (p.o., time 120): 9143
PK of MI-883: MI-883 p.o. small int. (p.o., time 240): 2579
PK of MI-883: MI-883 p.o. small int. (p.o., time 480): 1398
PK of MI-883: MI-883 p.o. small int. (p.o., time 720): 2156
PK of MI-883: MI-883 p.o. small int. (p.o., time 1440): 21
PK of MI-883: MI-883 p.o. (p.o., time 10): 440
PK of MI-883: MI-883 p.o. (p.o., time 120): 9288
PK of MI-883: MI-883 p.o. (p.o., time 240): 1645
PK of MI-883: MI-883 p.o. (p.o., time 480): 1502
PK of MI-883: MI-883 p.o. (p.o., time 720): 1788
PK of MI-883: MI-883 p.o. (p.o., time 1440): 15
time with liver concentration above 1000 ng/g (single dose of 10 mg/kg): more than 18 hours
concentration in the liver lysate (single dose of 10 mg/kg p.o., male C57BL/6N mice): greater than 1000 ng/g

Reference: article PMC11802874, “The hypolipidemic effect of MI-883, the combined CAR agonist/ PXR antagonist, in diet-induced hypercholesterolemia model” (Nature Communications, 2025)
